Measured values taken from US12692302B2, “Uses of IL-13 antagonists for treating atopic dermatitis” (Genentech, Inc., priority 2016, dated 2026).

System: patients with persistent moderate to severe atopic dermatitis inadequately controlled by TCS
Test: Clinical Study I (phase II, lebrikizumab + TCS vs placebo + TCS): efficacy outcomes
Format: in vivo, human
Conditions: for Mean % Change in % BSA Affected / Mean % Change in EASI / Mean % Change in Pruritus VAS / Mean % Change in SCORAD / Mean % Change in Sleep VAS / Mean Absolute Change in IGA: screening to baseline (2-week TCS run-in, before study drug)
Experimental: Clinical Study I was a phase II, randomized, double-blind, placebo-controlled study to evaluate the safety and efficacy of lebrikizumab in patients (age 18-75) with persistent moderate to severe atopic dermatitis that is inadequately controlled by topical corticosteroids (TCS). In this Study, lebrikizumab was tested in combination with TCS.
The inclusion criteria included the following: age 18 to 75 years; AD diagnosed by the Hanifin/Rajka criteria and that had been present for at least 1 year at screening; moderate to severe AD as graded by the Rajka/Langeland criteria at screening; history of inadequate response to a 1 month (within the 3 months prior to the screening visit) treatment regimen of at least daily TCS and regular emollient for treatment of AD; EASI score 14 at screening and end of the run-in period (Visit 3), IGA score 3 (5-point scale) at screening and end of the run-in period (Visit 3); AD involvement of 10% body surface area (BSA) at screening; and Pruritus VAS score (measured as part of the SCORAD) of 3 at screening.
Run-in Period. Following the screening visit, eligible patients entered a 2-week run-in period (Days −14 to −1) during which a protocol-specified topical therapy regimen was initiated. On the first day of the run-in period (Day −14) patients received TCS for use throughout the run-in period. Patients were required to apply the following topical therapy regimen daily: emollient to all xerotic skin surfaces, at least once daily; TCS cream consisting of medium potency TCS (triamcinolone acetonide 0.1%), two times per day, only to all active skin lesions.
Treatment Period. […] The plan was to randomize approximately 200 patients (1:1:1:1) to one of the following four treatment groups (see FIG. 1): (1) Group 1: lebrikizumab 250 mg administered subcutaneously (SC) single dose (Day 1) followed by 2 placebo doses (at Week 4 and at Week 8) for a total of 3 doses+TCS cream; (2) Group 2: lebrikizumab 125 mg SC single dose (Day 1) followed by 2 placebo doses (Week 4 and Week 8) for a total of 3 doses+TCS cream; (3) Group 3: lebrikizumab 125 mg SC every 4 weeks (Q4W) for a total of 3 doses+TCS cream; and (4) Group 4: placebo SC Q4W for a total of 3 doses+TCS cream. Three active doses were included to characterize both exposure-response relationships and dosing frequency requirements.
Patients randomized to these four study treatment groups received study drug (lebrikizumab or placebo SC) in combination with TCS. Throughout the 12-week treatment period these patients continued to apply emollient at least once daily and triamcinolone acetonide 0.1% cream as described in the run-in period (two times per day to all active skin lesions on the body). […] Patients recorded their use of topical creams and responded to PRO-related questions using a hand held eDiary throughout the treatment period. At each study visit the patient was required to bring their TCS containers to the study site to be weighed.
Efficacy Outcome Measures. The primary efficacy outcome measure was the percentage of patients achieving EASI-50 (a 50% reduction in EASI score from baseline) at Week 12. […]

[1] = 125 mg Q4W + TCS BID (n = 51), Week 12
[2] = 125 mg Q4W + TCS BID (n = 51), Week 12, listed as Lebri
[3] = 125 mg once every four weeks + TCS, Week 12, post hoc analysis
[4] = 125 mg single dose + TCS BID (n = 52), Week 12
[5] = 250 mg single dose + TCS BID (n = 53), Week 12

## lebrikizumab: monoclonal humanized anti-IL-13 IgG4 antibody; heavy chain SEQ ID NO: 11, light chain SEQ ID NO: 12; formulated at 125 mg/mL in prefilled syringe
[1]
  % Patients achieving EASI-50: 82.4%
  % Patients achieving EASI-50, placebo-corrected changes: 20.1%
  % Patients achieving EASI-75: 54.9%
  % Patients achieving EASI-75, placebo-corrected changes: 20.9%
  % Patients achieving IGA 0/1: (33.3) %
  % Patients achieving IGA 0/1, placebo-corrected change: 14.5%
  % Patients achieving SCORAD-50: 51.0%
  % Patients achieving SCORAD-50, placebo-corrected change: 24.6%
  % Patients achieving SCORAD-75: (21.6) %
  % change from baseline in AD Specific health-related QoL - ADIQ, mean: −54.3%
  % change from baseline in ADIQ, placebo-corrected change: −25.3%
  % change from baseline in Pruritus VAS (from SCORAD), mean: −40.71%
  % change from baseline in Pruritus VAS (from SCORAD), placebo-corrected change: −13.7%
  % change from baseline in Sleep Loss VAS (from SCORAD), mean: −53.6%
  % change from baseline in Sleep Loss VAS (from SCORAD), placebo-corrected change: −31.0%
  DLQI, % change from baseline, adjusted mean: −43.12%
  DLQI, % change from baseline, Δ vs placebo: −9.55%
  SCORAD score % change from baseline, adjusted mean: −53.5%
  SCORAD score % change from baseline, Δ vs placebo: −18.0%
  Total % BSA affected, % change from baseline, adjusted mean: −57.7%
  Total % BSA affected, % change from baseline, Δ vs placebo: −10.3%
[2]
  % Patients achieving EASI-50: (82.4) %
  % Patients achieving EASI-75: (54.9) %
  % Patients achieving SCORAD-50: (51.0) %
125 mg Q4W + TCS, Week 12
  reduction in BSA affected: 57.7%
125 mg Q4W + TCS, Week 20
  Change from baseline Pruritus VAS, mean % change: −35.23%
  Change from baseline Pruritus VAS, placebo-corrected differences: −13.76%
  Change from baseline in EASI, mean % change: −71.1%
  Change from baseline in EASI, placebo-corrected differences: −17.08%
  Patients maintaining EASI-50 response at Weeks 12 and 20, %: (90.5) %
  Patients maintaining EASI-50 response at Weeks 12 and 20, placebo-corrected differences: 17.75%
  Patients maintaining EASI-75 response at Weeks 12 and 20, %: (75.0) %
  Patients maintaining EASI-75 response at Weeks 12 and 20, placebo-corrected differences: 8.33%
  Patients maintaining IGA 0/1 response at Weeks 12 and 20, %: (70.6) %
  Patients maintaining IGA 0/1 response at Weeks 12 and 20, placebo-corrected differences: 10.59%
  Patients maintaining SCORAD-50 response at Weeks 12 and 20, %: (50.0) %
  Patients maintaining SCORAD-50 response at Weeks 12 and 20, placebo-corrected differences: −28.60%
125 mg SD + TCS, Week 20
  Change from baseline Pruritus VAS, mean % change: −27.59%
  Change from baseline Pruritus VAS, placebo-corrected differences: −6.13%
  Change from baseline in EASI, mean % change: −62.1%
  Change from baseline in EASI, placebo-corrected differences: −8.08%
  Patients maintaining EASI-50 response at Weeks 12 and 20, %: (80.6) %
  Patients maintaining EASI-50 response at Weeks 12 and 20, placebo-corrected differences: 7.83%
  Patients maintaining EASI-75 response at Weeks 12 and 20, %: (45.0) %
  Patients maintaining EASI-75 response at Weeks 12 and 20, placebo-corrected differences: −21.70%
  Patients maintaining IGA 0/1 response at Weeks 12 and 20, %: (54.5) %
  Patients maintaining IGA 0/1 response at Weeks 12 and 20, placebo-corrected differences: −5.45%
  Patients maintaining SCORAD-50 response at Weeks 12 and 20, %: (61.1) %
  Patients maintaining SCORAD-50 response at Weeks 12 and 20, placebo-corrected differences: −17.50%
[3]
  ADIQ reduction from screening: 64.7%
  Pruritus VAS reduction from screening: 55.2%
  Sleep Loss VAS reduction from screening: 61.5%
125 mg once every four weeks for 12 weeks + TCS, P=0.025
  placebo corrected change in EASI (difference between lebrikizumab treatment and placebo): 17.4%
125 mg once every four weeks for 12 weeks + TCS, modified intention-to-treat population
  % change (decrease) from baseline in EASI: 70.5%
[4]
  % Patients achieving EASI-50: (69.2) %
  % Patients achieving EASI-50, placebo-corrected changes: 7.0%
  % Patients achieving EASI-75: (38.5) %
  % Patients achieving EASI-75, placebo-corrected changes: 4.5%
  % Patients achieving IGA 0/1: (21.2) %
  % Patients achieving IGA 0/1, placebo-corrected change: 2.3%
  % Patients achieving SCORAD-50: (34.6) %
  % Patients achieving SCORAD-50, placebo-corrected change: 8.2%
  % Patients achieving SCORAD-75: (13.5) %
  % change from baseline in AD Specific health-related QoL - ADIQ, mean: −33.9%
  % change from baseline in ADIQ, placebo-corrected change: −4.9%
  % change from baseline in Pruritus VAS (from SCORAD), mean: −34.92%
  % change from baseline in Pruritus VAS (from SCORAD), placebo-corrected change: −7.38%
  % change from baseline in Sleep Loss VAS (from SCORAD), mean: −53.1%
  % change from baseline in Sleep Loss VAS (from SCORAD), placebo-corrected change: −30.6%
  DLQI, % change from baseline, adjusted mean: −34.33%
  DLQI, % change from baseline, Δ vs placebo: −0.76%
  SCORAD score % change from baseline, adjusted mean: −38.7%
  SCORAD score % change from baseline, Δ vs placebo: −3.3%
  Total % BSA affected, % change from baseline, adjusted mean: −45.2%
  Total % BSA affected, % change from baseline, Δ vs placebo: 2.2%
250 mg SD + TCS, Week 20
  Change from baseline Pruritus VAS, mean % change: −30.25%
  Change from baseline Pruritus VAS, placebo-corrected differences: −8.79%
  Change from baseline in EASI, mean % change: −55.9%
  Change from baseline in EASI, placebo-corrected differences: −1.88%
  Change from baseline in the % BSA affected, mean % change: −46.4%
  Change from baseline in the % BSA affected, placebo-corrected differences: 5.56%
  Patients maintaining EASI-50 response at Weeks 12 and 20, %: (78.4) %
  Patients maintaining EASI-50 response at Weeks 12 and 20, placebo-corrected differences: 5.65%
  Patients maintaining EASI-75 response at Weeks 12 and 20, %: (61.5) %
  Patients maintaining EASI-75 response at Weeks 12 and 20, placebo-corrected differences: −5.13%
  Patients maintaining IGA 0/1 response at Weeks 12 and 20, %: (60.0) %
  Patients maintaining IGA 0/1 response at Weeks 12 and 20, placebo-corrected differences: 0%
  Patients maintaining SCORAD-50 response at Weeks 12 and 20, %: (64.0) %
  Patients maintaining SCORAD-50 response at Weeks 12 and 20, placebo-corrected differences: −14.60%
[5]
  % Patients achieving EASI-50: (69.8) %
  % Patients achieving EASI-50, placebo-corrected changes: 7.6%
  % Patients achieving EASI-75: (49.1) %
  % Patients achieving EASI-75, placebo-corrected changes: 15.1%
  % Patients achieving IGA 0/1: (28.3) %
  % Patients achieving IGA 0/1, placebo-corrected change: 9.4%
  % Patients achieving SCORAD-50: 47.2%
  % Patients achieving SCORAD-50, placebo-corrected change: 20.8%
  % Patients achieving SCORAD-75: (11.3) %
  % change from baseline in AD Specific health-related QoL - ADIQ, mean: −30.8%
  % change from baseline in ADIQ, placebo-corrected change: −1.8%
  % change from baseline in Pruritus VAS (from SCORAD), mean: −32.82%
  % change from baseline in Pruritus VAS (from SCORAD), placebo-corrected change: −5.28%
  % change from baseline in Sleep Loss VAS (from SCORAD), mean: −47.2%
  % change from baseline in Sleep Loss VAS (from SCORAD), placebo-corrected change: −24.6%
  DLQI, % change from baseline, adjusted mean: −40.67%
  DLQI, % change from baseline, Δ vs placebo: −7.09%
  SCORAD score % change from baseline, adjusted mean: −42.6%
  SCORAD score % change from baseline, Δ vs placebo: −7.2%
  Total % BSA affected, % change from baseline, adjusted mean: −38.6%
  Total % BSA affected, % change from baseline, Δ vs placebo: 8.8%
250 mg single dose + TCS BID (n = 53), Week 12, listed as Lebri
  % Patients achieving SCORAD-50: (47.2) %
125 mg Q4W group (n = 51)
  Mean % Change in % BSA Affected: −9.3%
  Mean % Change in EASI: −9.1%
  Mean % Change in Pruritus VAS: −15.2%
  Mean % Change in SCORAD: −7.7%
  Mean % Change in Sleep VAS: −12.9%
  Mean Absolute Change in IGA: −0.14
125 mg SD group (n = 52)
  Mean % Change in % BSA Affected: −17.1%
  Mean % Change in EASI: −14.3%
  Mean % Change in Pruritus VAS: −23.8%
  Mean % Change in SCORAD: −12.2%
  Mean % Change in Sleep VAS: −29.0%
  Mean Absolute Change in IGA: −0.21
250 mg SD group (n = 53)
  Mean % Change in % BSA Affected: −4.3%
  Mean % Change in EASI: −10.2%
  Mean % Change in Pruritus VAS: −15.5%
  Mean % Change in SCORAD: −9.9%
  Mean % Change in Sleep VAS: −8.1%
  Mean Absolute Change in IGA: −0.17
